The values that follow come from patent publication US20110190235A1, “BORON-CONTAINING SMALL MOLECULES AS ANTIPROTOZOAL AGENTS” (Anacor Pharmaceuticals, Inc., priority 2009, published 2011).

pIC50: −log10 of the molar value. Converted amounts (≈) assume the structure as drawn. Read-outs that look alike come from different tables or passages of the source.

Data set [1] in a line: L929 cytotoxicity evaluation (resazurin). To be noted: mouse, L929 mouse fibroblast cells; 72 hrs incubation; read-out: Cytotox L-929 IC50. Type of data set: cell-based. Here is the method: For evaluation of compound effects on mammalian cells, L929 mouse fibroblast cells were used. Cells were maintained as adherent cultures in T-25 vented cap flasks in a humidified incubator at 37° C. in the presence of 5% CO2. Culture media was D-MEM supplemented with 10% fetal bovine serum and 1% penicillin/streptomycin. L929 cells were maintained below confluent levels by sub-culturing at 1:10 dilution twice weekly using 0.05% trypsin for detachment.
Sub-confluent L929 cells were trypsinized, resuspended in fresh media and 10 uL was counted using hemocytometer to determine cell concentration. Cells were diluted to 1×10^4/mL in DMEM, dispensed (100 uL) into 96-well plates using a Multidrop 384 dispenser and allowed to attach overnight. Spent media was replaced with 99.5 uL fresh D-MEM and compounds to be tested were serially diluted in DMSO and 0.5 uL added using a Biomek NX liquid handler. Plates were incubated with compounds for 72 hrs at 37° C. with 5% CO2. Resazurin (20 uL of 12.5 mg/ml stock) from Sigma-Aldrich was added to each well and plates were incubated for an additional 3-4 hrs. Assay plates were read using an EnVision plate reader at an excitation wavelength of 544 nm and emission of 590 nm. Single data points were used to generate sigmoidal dose response curves and determine IC50 values using XLfit curve fitting software from IDBS (Guildford, UK).
(In general: Alamar Blue is a resazurin reagent that responds to reducing activity.)

Data set [2] deals with bloodstream-form trypanosome T. brucei brucei 427 strain. In words: Trypanosoma brucei brucei high-throughput in vitro drug sensitivity assay (resazurin). The format is cell-based. Conditions: for IC50 / pIC50: Trypanosoma brucei, 72 hrs incubation; for IC50: read-out: T.b. brucei IC50; for Selectivity Index (L929 IC50 / T. b. brucei IC50): T. b. brucei vs L929; for pIC50: read-out: T. b. brucei IC50.

Turning to `CC1(C)OB(O)c2cc(NC(=O)c3ccc(-c4ccccc4)cc3)ccc21` [compound 62, Biphenyl-4-carboxylic acid (1-hydroxy-3,3-dimethyl-1,3-dihydro-benzo[c][1,2]oxaborol-6-yl)-amide], in data set [1], the IC50 (as a rule, the concentration at which inhibition is half-maximal) at 72 h is above 10 µg/mL. The IC50 in data set [2] came to 0.365 µg/mL.
With `CC1(C)OB(O)c2cc(NC(=O)c3ccc(F)cc3F)ccc21` [compound 63, 2,4-Difluoro-N-(1-hydroxy-3,3-dimethyl-1,3-dihydro-benzo[c][1,2]oxaborol-6-yl)-benzamide], the IC50 at 72 h in data set [1] was above 10 µg/mL. In data set [2], the “Selectivity Index (L929 IC50 / T. b. brucei IC50)” value was above 4; the pIC50 (commonly the negative decadic logarithm of the IC50, by convention in mol/L) is 5.08; the IC50 came out at 2.66 µg/mL.
Take `CC1(C)OB(O)c2cc(NC(=O)c3c(F)cccc3F)ccc21` [compound 64, 2,6-Difluoro-N-(1-hydroxy-3,3-dimethyl-1,3-dihydro-benzo[c][1,2]oxaborol-6-yl)-benzamide]: the IC50 at 72 h in data set [1] is above 10 µg/mL. Also, in data set [2], the half-inhibitory concentration (IC50) worked out at 0.724 µg/mL.
For `CC1(C)OB(O)c2cc(NC(=O)c3cccc(Cl)c3Cl)ccc21` [compound 66, 2,3-Dichloro-N-(1-hydroxy-3,3-dimethyl-1,3-dihydro-benzo[c][1,2]oxaborol-6-yl)-benzamide] the same measures were above 10 µg/mL and 0.292 µg/mL.
For `CC1(C)OB(O)c2cc(NC(=O)c3ccc(Cl)c(Cl)c3)ccc21` [compound 67, 3,4-Dichloro-N-(1-hydroxy-3,3-dimethyl-1,3-dihydro-benzo[c][1,2]oxaborol-6-yl)-benzamide] the same measures were above 10 µg/mL and above 5 µg/mL.
On to `CC1(C)OB(O)c2cc(NC(=O)c3c(Cl)cccc3Cl)ccc21` [compound 68, 2,6-Dichloro-N-(1-hydroxy-3,3-dimethyl-1,3-dihydro-benzo[c][1,2]oxaborol-6-yl)-benzamide], for which the 50% inhibitory concentration (IC50) at 72 h in data set [1] was above 10 µg/mL. For the same compound, the IC50 in data set [2] worked out at 2.23 µg/mL.
For `CC1(C)OB(O)c2cc(NC(=O)c3cccc(Cl)c3F)ccc21` [compound 70, 3-Chloro-2-fluoro-N-(1-hydroxy-3,3-dimethyl-1,3-dihydro-benzo[c][1,2]oxaborol-6-yl)-benzamide] the same measures were above 10 µg/mL and 0.377 µg/mL.
Regarding `CC1(C)OB(O)c2cc(NC(=O)c3ccc(Cl)cc3F)ccc21` [compound 71, 4-Chloro-2-fluoro-N-(1-hydroxy-3,3-dimethyl-1,3-dihydro-benzo[c][1,2]oxaborol-6-yl)-benzamide], the 50% inhibitory concentration (IC50) at 72 h in data set [1] was above 10 µg/mL. In addition, the IC50 in data set [2] stood at 0.697 µg/mL.
For `CC1(C)OB(O)c2cc(NC(=O)c3cc(Cl)ccc3F)ccc21` [compound 72, 5-Chloro-2-fluoro-N-(1-hydroxy-3,3-dimethyl-1,3-dihydro-benzo[c][1,2]oxaborol-6-yl)-benzamide] the same measures were above 10 µg/mL and 0.407 µg/mL.
For `CC1(C)OB(O)c2cc(NC(=O)c3c(F)cccc3Cl)ccc21` [compound 73, 2-Chloro-6-fluoro-N-(1-hydroxy-3,3-dimethyl-1,3-dihydro-benzo[c][1,2]oxaborol-6-yl)-benzamide] the same measures were above 10 µg/mL and 2.44 µg/mL.
On to `CC1(C)OB(O)c2cc(NC(=O)c3ccc(F)cc3Br)ccc21` [compound 74, 2-Bromo-4-fluoro-N-(1-hydroxy-3,3-dimethyl-1,3-dihydro-benzo[c][1,2]oxaborol-6-yl)-benzamide], for which the IC50 at 72 h in data set [1] was above 10 µg/mL. Moreover, in data set [2], the “Selectivity Index (L929 IC50 / T. b. brucei IC50)” value is recorded as above 18, the pIC50 is 5.83 and the IC50 came to 0.564 µg/mL.
For `CC1(C)OB(O)c2cc(NC(=O)c3ccc(Cl)cc3Br)ccc21` [compound 75, 2-Bromo-4-chloro-N-(1-hydroxy-3,3-dimethyl-1,3-dihydro-benzo[c][1,2]oxaborol-6-yl)-benzamide], in data set [1], the IC50 at 72 h was above 10 µg/mL. The IC50 in data set [2] came out at 0.405 µg/mL.
Consider `CC1(C)OB(O)c2cc(NC(=O)c3ccc(I)cc3Cl)ccc21` [compound 77, 2-Chloro-N-(1-hydroxy-3,3-dimethyl-1,3-dihydro-benzo[c][1,2]oxaborol-6-yl)-4-iodo-benzamide], for which the IC50 at 72 h in data set [1] was above 10 µg/mL. The concentration for half-maximal inhibition (IC50) in data set [2] came out at 0.05 µg/mL.
For `Cc1ccc(C(=O)Nc2ccc3c(c2)B(O)OC3(C)C)c(C)c1` [compound 78, N-(1-Hydroxy-3,3-dimethyl-1,3-dihydro-benzo[c][1,2]oxaborol-6-yl)-2,4-dimethyl-benzamide] the same measures were above 10 µg/mL and 1.1 µg/mL.
For `CC1(C)OB(O)c2cc(NC(=O)c3ccc(C(F)(F)F)cc3C(F)(F)F)ccc21` [compound 79, N-(1-Hydroxy-3,3-dimethyl-1,3-dihydro-benzo[c][1,2]oxaborol-6-yl)-2,4-bis-trifluoromethyl-benzamide] the same measures were above 10 µg/mL and 1.1 µg/mL.
For `CC1(C)OB(O)c2cc(NC(=O)c3cc(C(F)(F)F)cc(C(F)(F)F)c3)ccc21` [compound 80, N-(1-Hydroxy-3,3-dimethyl-1,3-dihydro-benzo[c][1,2]oxaborol-6-yl)-3,5-bis-trifluoromethyl-benzamide] the same measures were above 10 µg/mL and above 5 µg/mL.
With `CC1(C)OB(O)c2cc(NC(=O)c3cc(C(F)(F)F)ccc3C(F)(F)F)ccc21` [compound 81, N-(1-Hydroxy-3,3-dimethyl-1,3-dihydro-benzo[c][1,2]oxaborol-6-yl)-2,5-bis-trifluoromethyl-benzamide], the IC50 at 72 h in data set [1] is above 10 µg/mL. Besides, in data set [2], the concentration for half-maximal inhibition (IC50) came out at 0.183 µg/mL.
For `CC1(C)OB(O)c2cc(NC(=O)c3cccc(C(F)(F)F)c3F)ccc21` [compound 83, 2-Fluoro-N-(1-hydroxy-3,3-dimethyl-1,3-dihydro-benzo[c][1,2]oxaborol-6-yl)-3-trifluoromethyl-benzamide] the same measures were above 10 µg/mL and 0.543 µg/mL.
For `CC1(C)OB(O)c2cc(NC(=O)c3ccc(C(F)(F)F)cc3F)ccc21` [compound 84, 2-Fluoro-N-(1-hydroxy-3,3-dimethyl-1,3-dihydro-benzo[c][1,2]oxaborol-6-yl)-4-trifluoromethyl-benzamide] the same measures were above 10 µg/mL and 0.533 µg/mL.
For `CC1(C)OB(O)c2cc(NC(=O)c3cc(C(F)(F)F)ccc3F)ccc21` [compound 85, 2-Fluoro-N-(1-hydroxy-3,3-dimethyl-1,3-dihydro-benzo[c][1,2]oxaborol-6-yl)-5-trifluoromethyl-benzamide], the IC50 at 72 h in data set [1] was above 10 µg/mL. The concentration for half-maximal inhibition (IC50) in data set [2] turned out to be 1.14 µg/mL.
On to `CC1(C)OB(O)c2cc(NC(=O)c3c(F)cccc3C(F)(F)F)ccc21` [compound 86, 2-Fluoro-N-(1-hydroxy-3,3-dimethyl-1,3-dihydro-benzo[c][1,2]oxaborol-6-yl)-6-trifluoromethyl-benzamide], for which, in data set [1], the IC50 at 72 h was above 10 µg/mL. For the same compound, the half-maximal inhibitory concentration (IC50) in data set [2] was 0.425 µg/mL.
For `Cc1cc(F)ccc1C(=O)Nc1ccc2c(c1)B(O)OC2(C)C` [compound 87, 4-Fluoro-N-(1-hydroxy-3,3-dimethyl-1,3-dihydro-benzo[c][1,2]oxaborol-6-yl)-2-methyl-benzamide] the same measures were above 10 µg/mL and 3.88 µg/mL.
For `CC1(C)OB(O)c2cc(NC(=O)c3cc(F)ccc3C(F)(F)F)ccc21` [compound 88, 5-Fluoro-N-(1-hydroxy-3,3-dimethyl-1,3-dihydro-benzo[c][1,2]oxaborol-6-yl)-2-trifluoromethyl-benzamide] the same measures were above 10 µg/mL and 0.313 µg/mL.
For `Cc1ccc(C(=O)Nc2ccc3c(c2)B(O)OC3(C)C)c(Cl)c1` [compound 89, 2-Chloro-N-(1-hydroxy-3,3-dimethyl-1,3-dihydro-benzo[c][1,2]oxaborol-6-yl)-4-methyl-benzamide] the same measures were above 10 µg/mL and 0.152 µg/mL.
Regarding `CC1(C)OB(O)c2cc(NC(=O)c3cc(C(F)(F)F)ccc3Cl)ccc21` [compound 90, 2-Chloro-N-(1-hydroxy-3,3-dimethyl-1,3-dihydro-benzo[c][1,2]oxaborol-6-yl)-5-trifluoromethyl-benzamide], in data set [1], the IC50 at 72 h was above 10 µg/mL. Besides, in data set [2], the IC50 stood at 0.514 µg/mL.
For the compound `Cc1cc(Br)ccc1C(=O)Nc1ccc2c(c1)B(O)OC2(C)C` [compound 91], the 50% inhibitory concentration (IC50) at 72 h in data set [1] is above 10 µg/mL. For the same compound, the 50% inhibitory concentration (IC50) in data set [2] is 0.786 µg/mL.
For `CC1(C)OB(O)c2cc(NC(=O)c3cc([N+](=O)[O-])ccc3Cl)ccc21` [compound 92] the same measures were 2.68 µg/mL (≈ 7.43 µM) and 0.158 µg/mL.
For `CC1(C)OB(O)c2cc(NC(=O)c3ccc([N+](=O)[O-])cc3Cl)ccc21` [compound 93] the same measures were above 10 µg/mL and 0.197 µg/mL.
`COc1ccc(C(=O)Nc2ccc3c(c2)B(O)OC3(C)C)c(OC)c1` [compound 94]: the IC50 at 72 h in data set [1] was above 10 µg/mL. In addition, in data set [2], the IC50 came to 0.4 µg/mL.
For `COc1ccc(C(=O)Nc2ccc3c(c2)B(O)OC3(C)C)cc1C` [compound 95, N-(1-Hydroxy-3,3-dimethyl-1,3-dihydro-benzo[c][1,2]oxaborol-6-yl)-4-methoxy-3-methyl-benzamide] the same measures were above 10 µg/mL and 0.86 µg/mL.
